From US10294202B2, “Pyrrolidinones as herbicides” (FMC Corporation, priority 2013, dated 2019)

Tests used:
ducksalad = test: Test C flooded paddy test; format: in vivo, Heteranthera limosa; conditions: Flood
Procedure, shortened: (§1)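 2-leaf stage; flood 3 cm over soil; compound into paddy water; depth held; greenhouse 13–15 d; visual % control vs untreated (0 = none, 100 = complete); "-" = not tested.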

giant foxtail = test: Test A pre-/postemergence herbicide test; format: in vivo, Setaria faberii
Procedure, shortened: (§2)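 Seeds in loam–sand blend received preemergence directed soil spray; separately, plants 2–10 cm at one- to two-leaf stage received postemergence spray, both with test chemicals in non-phytotoxic solvent with surfactant. After ~10 days in greenhouse, injury rated visually against untreated controls, 0 (no effect) to 100 (complete control).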

corn = test: Test A pre-/postemergence herbicide test; format: in vivo, Zea mays; conditions: Postemergence
Procedure, shortened: as §2

pigweed = test: Test A pre-/postemergence herbicide test; format: in vivo, Amaranthus retroflexus
Procedure, shortened: as §2

rice = test: Test C flooded paddy test; format: in vivo, Oryza sativa; conditions: Flood
Procedure, shortened: as §1

barnyardgrass [1] = test: Test A pre-/postemergence herbicide test; format: in vivo, Echinochloa crus-galli
Procedure, shortened: as §2

kochia = test: Test A pre-/postemergence herbicide test; format: in vivo, Kochia scoparia
Procedure, shortened: as §2

ryegrass, Italian = test: Test A pre-/postemergence herbicide test; format: in vivo, Lolium multiflorum
Procedure, shortened: as §2

galium = test: Test A postemergence herbicide test; format: in vivo, Galium aparine
Procedure, shortened: (§3)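 Visual injury rating, 0 (no effect) to 100 (complete control), versus untreated controls ~10 days after treatment. Postemergence spray applied at one- to two-leaf stage, plants 2–10 cm tall, potted in loam soil/sand. Greenhouse-held.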

sedge, umbrella = test: Test C flooded paddy test; format: in vivo, Cyperus difformis; conditions: Flood
Procedure, shortened: as §1

wheat = test: Test A pre-/postemergence herbicide test; format: in vivo, Triticum aestivum; conditions: Postemergence
Procedure, shortened: as §2

blackgrass = test: Test A postemergence herbicide test; format: in vivo, Alopecurus myosuroides
Procedure, shortened: as §3

ragweed = test: Test A pre-/postemergence herbicide test; format: in vivo, Ambrosia elatior
Procedure, shortened: as §2

barnyardgrass [2] = test: Test C flooded paddy test; format: in vivo, Echinochloa crus-galli; conditions: Flood
Procedure, shortened: as §1

morningglory = test: Test A pre-/postemergence herbicide test; format: in vivo, Ipomoea spp.; conditions: Postemergence, 125 g ai/ha; visual rating on 0 to 100 scale (0 no effect, 100 complete control), approx. 10 days
Procedure, shortened: as §2

[3] = 125 g ai/ha, scale of 0 to 100 where 0 is no effect and 100 is complete control, 13 to 15 days
[4] = 250 g ai/ha, scale of 0 to 100 where 0 is no effect and 100 is complete control, 13 to 15 days
[5] = 125 g ai/ha, visual rating, 0 to 100 scale, 0 no effect, 100 complete control, approximately 10 days, preemergence
[6] = Postemergence, 125 g ai/ha, 0 to 100 scale, 0 is no effect, 100 is complete control
[7] = preemergence, 500 g ai/ha, 0 to 100 scale, 0 is no effect and 100 is complete control
[8] = 125 g ai/ha, 0 to 100 scale, 0 is no effect, 100 is complete control
[9] = Postemergence, 500 g ai/ha, 0 to 100 scale (0 no effect, 100 complete control)
[10] = Preemergence, 125 g ai/ha, 0 to 100 scale where 0 is no effect and 100 is complete control
[11] = 500 g ai/ha, 0 to 100 scale (0 no effect, 100 complete control)

O=C1NC[C@@H](c2cccc(C(F)(F)F)c2)[C@@H]1C(=O)Nc1cccc(F)c1F [Compound 205]
45: Plant response rating, Barnyardgrass (barnyardgrass [2]; 1000 g ai/ha, scale 0 to 100)
80: Plant response rating, Barnyardgrass (barnyardgrass [1]; [7])
40: Plant response rating, Barnyardgrass (barnyardgrass [1]; [6]) | Kochia plant response rating (0 to 100 scale, 0 is no effect, 100 is complete control) (kochia; Postemergence, 500 g ai/ha) | Wheat plant response rating (0 to 100 scale, 0 is no effect, 100 is complete control) (wheat; 500 g ai/ha)
70: Plant response rating, Foxtail, Giant (giant foxtail; [6]) | Barnyardgrass plant response rating (0 to 100 scale, 0 is no effect, 100 is complete control) (barnyardgrass [1]; Postemergence, 500 g ai/ha) | Blackgrass plant response rating (0 to 100 scale, 0 is no effect, 100 is complete control) (blackgrass; 500 g ai/ha)
0: Plant response rating, Ducksalad (ducksalad; [3]) | Plant response rating, Ducksalad (ducksalad; [4]) | Plant response rating, Corn (corn; [8]) | Corn plant response rating (0 to 100 scale, 0 is no effect, 100 is complete control) (corn; 500 g ai/ha) | Plant response rating, Pigweed (pigweed; [5]) | Plant response rating, Pigweed (pigweed; [6]) | Plant response rating, Rice (rice; [3]) | Plant response rating, Rice (rice; [4]) | Plant response rating, Rice (rice; 500 g ai/ha, scale 0 to 100) | Plant response rating, Rice (rice; 1000 g ai/ha, scale 0 to 100) | Plant response rating, Kochia (kochia; [6]) | Plant response rating, Ryegrass, Italian (ryegrass, Italian; [5]) | Plant response rating, Ryegrass, Italian (ryegrass, Italian; [6]) | Ryegrass, Italian plant response rating (0 to 100 scale, 0 is no effect, 100 is complete control) (ryegrass, Italian; Postemergence, 500 g ai/ha) | Plant response rating, Sedge, Umbrella (sedge, umbrella; [3]) | Plant response rating, Sedge, Umbrella (sedge, umbrella; [4]) | Plant response rating, Sedge, Umbrella (sedge, umbrella; 500 g ai/ha, scale 0 to 100) | Plant response rating, Sedge, Umbrella (sedge, umbrella; 1000 g ai/ha, scale 0 to 100) | Plant response rating, Wheat (wheat; [8]) | Plant response rating, Blackgrass (blackgrass; [8]) | Plant response rating, Ragweed (ragweed; [5]) | Plant response rating, Ragweed (ragweed; [6]) | Ragweed plant response rating (0 to 100 scale, 0 is no effect, 100 is complete control) (ragweed; Postemergence, 500 g ai/ha) | Plant response rating, Barnyardgrass (barnyardgrass [2]; [3])
65: Plant response rating, Ducksalad (ducksalad; 1000 g ai/ha, scale 0 to 100)
60: Plant response rating, Foxtail, Giant (giant foxtail; [5]) | Galium plant response rating (0 to 100 scale, 0 is no effect, 100 is complete control) (galium; 500 g ai/ha)
20: Plant response rating, Pigweed (pigweed; [7]) | Plant response rating, Kochia (kochia; [5]) | Plant response rating, Ryegrass, Italian (ryegrass, Italian; [7]) | Plant response rating, Barnyardgrass (barnyardgrass [2]; [4])
30: Pigweed plant response rating (0 to 100 scale, 0 is no effect, 100 is complete control) (pigweed; Postemergence, 500 g ai/ha) | Plant response rating, Barnyardgrass (barnyardgrass [1]; [5]) | Plant response rating, Galium (galium; [8]) | Plant response rating, Ragweed (ragweed; [7]) | Plant response rating, Barnyardgrass (barnyardgrass [2]; 500 g ai/ha, scale 0 to 100)
50: Plant response rating, Ducksalad (ducksalad; 500 g ai/ha, scale 0 to 100) | Plant response rating, Kochia (kochia; [7])
90: Foxtail, Giant plant response rating (0 to 100 scale, 0 is no effect, 100 is complete control) (giant foxtail; Postemergence, 500 g ai/ha) | Plant response rating, Foxtail, Giant (giant foxtail; [7])

CN1CC(c2ccc(F)cc2)C(C(=O)Nc2ccccc2F)C1=O (centres unmarked) [Compound 270]
30: Plant response rating, Corn (corn; [11]) | Plant response rating, Kochia (kochia; [9]) | Plant response rating, Barnyardgrass (barnyardgrass [2]; [4])
60: Plant response rating, Foxtail, Giant (giant foxtail; [6]) | Plant response rating, Barnyardgrass (barnyardgrass [1]; [10]) | Plant response rating, Barnyardgrass (barnyardgrass [2]; 500 g ai/ha, scale 0 to 100)
40: Plant response rating, Pigweed (pigweed; Postemergence, 125 g ai/ha, visual rating on 0 to 100 scale (0 no effect, 100 complete control), approx. 10 days)
85: Plant response rating, Ducksalad (ducksalad; [4])
100: Plant response rating, Ducksalad (ducksalad; 500 g ai/ha, scale 0 to 100) | Plant response rating, Ducksalad (ducksalad; 1000 g ai/ha, scale 0 to 100)
50: Plant response rating, Galium (galium; [11])
80: Plant response rating, Foxtail, Giant (giant foxtail; [10]) | Plant response rating, Kochia (kochia; [7]) | Plant response rating, Barnyardgrass (barnyardgrass [2]; 1000 g ai/ha, scale 0 to 100)
90: Plant response rating, Foxtail, Giant (giant foxtail; [9]) | Plant response rating, Foxtail, Giant (giant foxtail; [7]) | Plant response rating, Barnyardgrass (barnyardgrass [1]; [6]) | Plant response rating, Barnyardgrass (barnyardgrass [1]; [9]) | Plant response rating, Barnyardgrass (barnyardgrass [1]; [7])
10: Plant response rating, Barnyardgrass (barnyardgrass [2]; [3])
0: Plant response rating, Corn (corn; [8]) | Plant response rating, Pigweed (pigweed; [9]) | Plant response rating, Pigweed (pigweed; [10]) | Plant response rating, Rice (rice; [3]) | Plant response rating, Rice (rice; [4]) | Plant response rating, Rice (rice; 500 g ai/ha, scale 0 to 100) | Plant response rating, Rice (rice; 1000 g ai/ha, scale 0 to 100) | Plant response rating, Kochia (kochia; [6]) | Plant response rating, Kochia (kochia; [10]) | Plant response rating, Ryegrass, Italian (ryegrass, Italian; [10]) | Plant response rating, Ryegrass, Italian (ryegrass, Italian; [7]) | Plant response rating, Sedge, Umbrella (sedge, umbrella; [3]) | Plant response rating, Sedge, Umbrella (sedge, umbrella; [4]) | Plant response rating, Sedge, Umbrella (sedge, umbrella; 500 g ai/ha, scale 0 to 100) | Plant response rating, Sedge, Umbrella (sedge, umbrella; 1000 g ai/ha, scale 0 to 100) | Plant response rating, Morningglory (morningglory) | Plant response rating, Wheat (wheat; 125 g ai/ha, visual rating on 0 to 100 scale (0 no effect, 100 complete control), approx. 10 days) | Plant response rating, Blackgrass (blackgrass; [8]) | Plant response rating, Ragweed (ragweed; [9]) | Plant response rating, Ragweed (ragweed; [10])
20: Plant response rating, Pigweed (pigweed; [7]) | Plant response rating, Ryegrass, Italian (ryegrass, Italian; [9]) | Plant response rating, Galium (galium; [8]) | Plant response rating, Wheat (wheat; [11]) | Plant response rating, Blackgrass (blackgrass; [11]) | Plant response rating, Ragweed (ragweed; [7])
75: Plant response rating, Ducksalad (ducksalad; [3])
